Where two headings read alike, the source gives them in different places.
Legend:
[1] = add on treatment, non-depressed patients with poorly controlled epilepsy; cited from earlier work
[2] = Food intake in the male Sprague Dawley rat; assay type: in vivo; conditions: PO 1, 2 or 5 mg/kg, 1 hour following administration, relative to placebo
Experimental: Male Sprague Dawley rats (225-300 g) were housed three per cage in a temperature and humidity controlled environment (12 h:12 h light:dark cycle, lights on at 0600 h). At 1600 h on the day before the test, rats were placed in fresh cages and food was removed. On test day, rats were placed into individual cages with grid floors at 1000 h with no access to food. At 1130 h, rats (n=8) were administered either vehicle (20% hydroxypropyl-β-cyclodextrin) or test compound via oral gavage (PO, 1 mL/kg, with an amount of 1 mg/kg, 2 mg/kg or 5 mg/kg of test compound) 30 min prior to food presentation. Food intake was measured at 60 min after drug administration (30 min after food presentation).

5-HT2B receptor [3] = biological target: T1, 5-HT2B receptor (Homo sapiens (Human), UniProt P41595); test: DOI radioligand binding assay, 5-HT2B; conditions: [125I]DOI competition, HEK293 cell membranes
T1 sequence (P41595 whole entry): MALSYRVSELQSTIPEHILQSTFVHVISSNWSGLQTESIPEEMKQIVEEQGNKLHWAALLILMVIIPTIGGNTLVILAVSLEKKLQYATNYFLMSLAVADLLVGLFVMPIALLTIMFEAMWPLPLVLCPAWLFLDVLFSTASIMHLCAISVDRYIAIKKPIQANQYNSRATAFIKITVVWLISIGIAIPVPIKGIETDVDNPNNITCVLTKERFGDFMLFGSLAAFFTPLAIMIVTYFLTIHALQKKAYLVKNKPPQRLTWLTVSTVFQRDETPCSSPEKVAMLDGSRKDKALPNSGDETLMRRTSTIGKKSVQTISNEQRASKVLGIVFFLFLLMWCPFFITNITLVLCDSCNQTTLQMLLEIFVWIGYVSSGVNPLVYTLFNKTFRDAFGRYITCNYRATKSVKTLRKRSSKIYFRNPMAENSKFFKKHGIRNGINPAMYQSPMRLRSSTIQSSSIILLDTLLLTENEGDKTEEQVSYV
Experimental: (§1) For the compounds of Table A, the following procedure was used. HEK293 cells stably expressing recombinant 5-HT2 receptors were harvested, suspended in ice-cold phosphate buffered saline, pH 7.4 (PBS), and then centrifuged at 48,000 g for 20 min at 4° C. The resulting cell pellet was then re-suspended in wash buffer containing 20 mM HEPES, pH 7.4 and 0.1 mM EDTA, homogenized on ice using a Brinkman Polytron, and centrifuged (48,000 g for 20 min at 4° C.). The pellet was then resuspended in 20 mM HEPES, pH 7.4, homogenized on ice, and centrifuged (48,000 g for 20 min at 4° C.). Crude membrane pellets were stored at −80° C. until used for radioligand binding assays.
(§2) For the compounds of Table A, the following procedure was used. […] Experiments comprised addition of 95 μL of assay buffer (20 mM HEPES, pH 7.4, 10 mM MgCl2), 50 μL of membranes, 50 μL of radioligand stock, and 5 μL of test compound diluted in assay buffer to 96-well microtiter plates, which were then incubated for 1 h at room temperature. Assay incubations were terminated by rapid filtration through PerkinElmer F/C filtration plates under reduced pressure using a 96-well Packard filtration apparatus, followed by washing three times with ice cold assay buffer. Plates were then dried at 45° C. for a minimum of 2 h. Finally, 25 μL of BetaScint™ scintillation cocktail was added to each well and the plates were counted in a Packard TopCount® scintillation counter. In each competition study, test compounds were dosed at ten concentrations with triplicate determinations at each test concentration.

5-HT2C receptor [4] = biological target: T2, 5-HT2C receptor (Homo sapiens (Human), UniProt P28335); test: IP accumulation assay, 5-HT2C; assay type: cell-based
T2 sequence (P28335 33-458): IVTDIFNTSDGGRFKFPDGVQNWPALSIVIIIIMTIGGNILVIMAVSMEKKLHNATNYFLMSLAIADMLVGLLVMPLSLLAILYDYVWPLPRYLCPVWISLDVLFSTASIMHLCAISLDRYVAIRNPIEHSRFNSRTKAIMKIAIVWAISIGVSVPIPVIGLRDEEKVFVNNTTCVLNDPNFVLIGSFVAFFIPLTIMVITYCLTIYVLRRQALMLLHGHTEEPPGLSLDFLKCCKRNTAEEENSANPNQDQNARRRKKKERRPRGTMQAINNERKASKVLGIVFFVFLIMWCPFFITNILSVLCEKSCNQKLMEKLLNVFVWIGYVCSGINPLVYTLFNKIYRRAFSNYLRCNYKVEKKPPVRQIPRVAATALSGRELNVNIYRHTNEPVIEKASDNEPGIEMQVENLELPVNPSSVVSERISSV
Experimental: (§3) HEK293 cells expressing recombinant 5-HT2 receptors were added to sterile poly-D-lysine-coated 96-well microtiter plates (35,000 cells/well) and labeled with 0.6 μCi/well of [^3H]inositol in myoinositol-free DMEM for 18 h. Unincorporated [^3H]inositol was removed by aspiration and replaced with fresh myoinositol-free DMEM supplemented with LiCl (10 mM final) and pargyline (10 μM final). Serially diluted test compounds were then added and incubation was conducted for 2 h at 37° C. (5-HT2B, and 5-HT2A) and RT (5-HT2C). Incubations were then terminated by lysing cells with the addition of ice-cold 0.1 M formic acid followed by freezing at −80° C. After thawing, total [^3H]inositol phosphates were resolved from [^3H]inositol using AG1-X8 ion exchange resin (Bio-Rad) and [^3H]inositol phosphates were measured by scintillation counting using a Perkin Elmer TopCount® scintillation counter. All EC50 determinations were performed using 10 different concentrations and triplicate determinations were made at each test concentration.

5-HT2B receptor [5] = biological target: T1, 5-HT2B receptor; test: IP accumulation assay, 5-HT2B; assay type: cell-based
Experimental: as §3

5-HT2C receptor [6] = biological target: T2, 5-HT2C receptor; test: DOI radioligand binding assay, 5-HT2C
Experimental: as §1, §2

[7] = patients without diabetes, cited from earlier work
[8] = cited from earlier work
[9] = 10 mg BID, type 2 diabetes; cited from earlier work
[10] = cited from earlier work; remark: listed apart in the source
[11] = patients with type 2 diabetes, BID
[12] = patients without type 2 diabetes
[13] = pivotal phase 3 program, up to two years

## CN(C)CCCC1(c2ccc(F)cc2)OCc2cc(C#N)ccc21 (centres unmarked) [citalopram]
[1]
  drop in median seizure frequency: 55.6%

## FC(F)(F)CCc1ccnc2c1CC[C@@H]1CNCCN21 [Compound 152, (R)-4-(3,3,3-trifluoropropyl)-6,6a,7,8,9,10-hexahydro-5H-pyrazino[1,2-a][1,8]naphthyridine]
[2]
  cumulative food intake: significantly decreased

## CC(C)Cc1ccnc2c1CC[C@@H]1CNCCN21 [Compound 114, (R)-4-isobutyl-6,6a,7,8,9,10-hexahydro-5H-pyrazino[1,2-a][1,8]naphthyridine]
5-HT2B receptor [3]
  Ki: 33 nM
5-HT2C receptor [4]
  EC50: 0.424 nM
5-HT2B receptor [5]
  EC50: 351 nM
5-HT2C receptor [6]
  Ki: 0.587 nM

## C[C@H]1CNCCc2ccc(Cl)cc21 [lorcaserin, (R)-8-chloro-1-methyl-2,3,4,5-tetrahydro-1H-3-benzazepine]
[7]; one study
  HOMA-IR change: −0.4
  fasting insulin change: −3.3 μIU/mL
[7]
  mean fasting glucose change: -0.2 mg/dL
[8]; [11]
  patients who decreased total daily dose of medications for dyslipidemia: 5.5%
  patients who increased use of medications for dyslipidemia: 3.1%
[8]; patients with type 2 diabetes
  decrease in mean daily doses of sulfonylureas and thiazolidinediones: 16-24%
  patients who decreased total daily dose of antihypertensive medications: 8.2%
  patients who increased total daily dose of antihypertensive medications: 6.6%
[8]; [12]
  patients who decreased total daily dose of antihypertensive medications: 2.2%
  patients who decreased total daily dose of medications for dyslipidemia: 1.3%
  patients who increased total daily dose of antihypertensive medications: 2.2%
  patients who increased use of medications for dyslipidemia: 2.6%
[9]
  reduction in HbAlc: 0.9%
[10]; phase 3 program
  risk of cardiac valvulopathy: did not increase
[10]; [13]
  patients achieved at least 5% weight loss: About two-thirds
  patients achieved at least 10% weight loss: over one-third
[10]; pivotal phase 3 program
  average weight lost, of their weight: about 8%
[10]; second phase 3 trial
  average weight loss, top quartile of patients: 35 pounds
  average weight loss, top quartile of patients, of body weight: 16%

## c1ccc(Cc2cncc3c2CC[C@@H]2CNCCN32)cc1 [Compound 175, (R)-4-benzyl-6,6a,7,8,9,10-hexahydro-5H-pyrazino[1,2-a][1,7]naphthyridine]
5-HT2B receptor [3]
  Ki: 270 nM
5-HT2C receptor [4]
  EC50: 0.622 nM
5-HT2B receptor [5]
  EC50: 19900 nM
5-HT2C receptor [6]
  Ki: 0.52 nM
